The record followed here is US20260078135A1, “POLYCYCLIC QUINAZOLINES FOR INHIBITION OF ERBB2” (Enliven Inc., priority 2022, published 2026).

One test addresses Ba/F3 ERBB2 YVMA (Homo sapiens, UniProt P04626, DUP772-775, cells depend on it). The test can be described thus: Cell viability assay (CellTiter Glo), Ba/F3 cells engineered to express ERBB2 YVMA. Conditions: Ba/F3 cells expressing human ERBB2 YVMA mutant, 72 hours, read-out: Ba/F3 ERBB2 YVMA, IC50. Format: cell-based, mouse. The method in brief:
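Ba/F3 cells (IL-3-independent via stable retroviral human ERBB2 YVMA) seeded 3000/well and given compound from about 10 μM to 0.51 nM in three-fold steps, DMSO ≤0.1%, 72 h at 37° C. Viability by CellTiter Glo luminescence, normalized to DMSO and media-only controls. Sigmoidal nonlinear fit.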
(In general: ATP-based viability assays read luminescence as a measure of living cells.)

Test [1] deals with T1, phosphorylated ERBB2 (pERBB2) (Homo sapiens, UniProt P04626).
T1 construct: endogenous in cells; host or cells: BT-474
The test can be described thus: Detection of phosphorylated ERBB2 (pERBB2) by ELISA in BT-474 cells. Format: cell-based. Conditions: four hour incubation. The procedure, abridged:
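BT-474 cells were treated with compounds (fourfold dilutions, 10 μM to 0.01 nM final) for 4 h at 37 °C, then lysed. pERBB2 in lysates was quantified by ELISA with an HRP anti-phosphotyrosine detection antibody and TMB read at 450 nm; % relative activity was normalized to no-cell and 0.1% DMSO controls.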
A general note: In an ELISA, binding on a coated surface is turned into a signal by an enzyme label.

For test [2], the target named is T2, phosphorylated EGFR (pEGFR) (Homo sapiens, UniProt P00533).
T2 construct: performed to measure phosphorylated EGFR levels using A431 cells (10% FBS); endogenous in cells; host or cells: A431
The test can be described thus: Detection of phosphorylated EGFR (pEGFR) by AlphaLISA in EGF-stimulated A431 cells. In kind it is cell-based. Conditions: A431 cells (10% FBS), 4 hours incubation, EGF 30 ng/mL for 10 minutes. The procedure, abridged:
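pEGFR was quantified by AlphaLISA in lysates of A431 cells (10% FBS) given a 10 min pulse of EGF at 30 ng/mL after 4 h compound exposure at 37 °C. IC50 came from a four-parameter fit of % inhibition between DMSO and staurosporine controls.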
In general terms: Bead proximity is the source of the signal in Alpha formats.

T1 sequence (P04626 23-1255): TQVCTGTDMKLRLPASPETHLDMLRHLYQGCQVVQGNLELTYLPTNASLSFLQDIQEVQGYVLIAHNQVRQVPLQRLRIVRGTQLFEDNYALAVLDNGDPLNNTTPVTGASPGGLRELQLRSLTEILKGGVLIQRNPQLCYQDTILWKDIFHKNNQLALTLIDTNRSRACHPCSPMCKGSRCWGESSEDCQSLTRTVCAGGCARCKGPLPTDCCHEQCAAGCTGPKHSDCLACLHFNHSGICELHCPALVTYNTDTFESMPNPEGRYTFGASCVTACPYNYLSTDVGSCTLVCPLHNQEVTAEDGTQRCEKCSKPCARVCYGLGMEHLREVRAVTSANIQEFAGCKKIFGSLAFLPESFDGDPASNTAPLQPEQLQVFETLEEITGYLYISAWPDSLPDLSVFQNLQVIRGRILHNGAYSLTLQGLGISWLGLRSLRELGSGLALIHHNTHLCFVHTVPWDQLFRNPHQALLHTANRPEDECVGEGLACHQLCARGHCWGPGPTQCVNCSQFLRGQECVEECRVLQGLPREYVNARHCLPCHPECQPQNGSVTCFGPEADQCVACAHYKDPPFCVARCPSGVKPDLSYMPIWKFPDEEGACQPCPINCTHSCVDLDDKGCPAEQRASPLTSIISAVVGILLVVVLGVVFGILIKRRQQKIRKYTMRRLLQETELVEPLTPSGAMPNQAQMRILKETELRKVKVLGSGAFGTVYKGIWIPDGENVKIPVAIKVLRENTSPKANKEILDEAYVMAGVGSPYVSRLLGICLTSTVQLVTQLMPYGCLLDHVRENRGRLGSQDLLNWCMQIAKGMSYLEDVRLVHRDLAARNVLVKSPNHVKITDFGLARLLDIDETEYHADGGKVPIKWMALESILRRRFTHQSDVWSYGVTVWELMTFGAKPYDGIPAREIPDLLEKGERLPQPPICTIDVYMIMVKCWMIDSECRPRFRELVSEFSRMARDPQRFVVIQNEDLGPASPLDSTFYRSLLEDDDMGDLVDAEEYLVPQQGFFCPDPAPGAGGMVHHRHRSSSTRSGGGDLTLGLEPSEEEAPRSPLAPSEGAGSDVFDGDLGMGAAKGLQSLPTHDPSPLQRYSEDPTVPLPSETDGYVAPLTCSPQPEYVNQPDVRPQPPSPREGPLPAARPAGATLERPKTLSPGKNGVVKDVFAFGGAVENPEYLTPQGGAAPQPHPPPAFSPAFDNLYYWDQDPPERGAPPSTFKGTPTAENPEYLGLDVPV
Chain of Ba/F3 ERBB2 YVMA (P04626 with tags, fused parts or gaps DUP772-775): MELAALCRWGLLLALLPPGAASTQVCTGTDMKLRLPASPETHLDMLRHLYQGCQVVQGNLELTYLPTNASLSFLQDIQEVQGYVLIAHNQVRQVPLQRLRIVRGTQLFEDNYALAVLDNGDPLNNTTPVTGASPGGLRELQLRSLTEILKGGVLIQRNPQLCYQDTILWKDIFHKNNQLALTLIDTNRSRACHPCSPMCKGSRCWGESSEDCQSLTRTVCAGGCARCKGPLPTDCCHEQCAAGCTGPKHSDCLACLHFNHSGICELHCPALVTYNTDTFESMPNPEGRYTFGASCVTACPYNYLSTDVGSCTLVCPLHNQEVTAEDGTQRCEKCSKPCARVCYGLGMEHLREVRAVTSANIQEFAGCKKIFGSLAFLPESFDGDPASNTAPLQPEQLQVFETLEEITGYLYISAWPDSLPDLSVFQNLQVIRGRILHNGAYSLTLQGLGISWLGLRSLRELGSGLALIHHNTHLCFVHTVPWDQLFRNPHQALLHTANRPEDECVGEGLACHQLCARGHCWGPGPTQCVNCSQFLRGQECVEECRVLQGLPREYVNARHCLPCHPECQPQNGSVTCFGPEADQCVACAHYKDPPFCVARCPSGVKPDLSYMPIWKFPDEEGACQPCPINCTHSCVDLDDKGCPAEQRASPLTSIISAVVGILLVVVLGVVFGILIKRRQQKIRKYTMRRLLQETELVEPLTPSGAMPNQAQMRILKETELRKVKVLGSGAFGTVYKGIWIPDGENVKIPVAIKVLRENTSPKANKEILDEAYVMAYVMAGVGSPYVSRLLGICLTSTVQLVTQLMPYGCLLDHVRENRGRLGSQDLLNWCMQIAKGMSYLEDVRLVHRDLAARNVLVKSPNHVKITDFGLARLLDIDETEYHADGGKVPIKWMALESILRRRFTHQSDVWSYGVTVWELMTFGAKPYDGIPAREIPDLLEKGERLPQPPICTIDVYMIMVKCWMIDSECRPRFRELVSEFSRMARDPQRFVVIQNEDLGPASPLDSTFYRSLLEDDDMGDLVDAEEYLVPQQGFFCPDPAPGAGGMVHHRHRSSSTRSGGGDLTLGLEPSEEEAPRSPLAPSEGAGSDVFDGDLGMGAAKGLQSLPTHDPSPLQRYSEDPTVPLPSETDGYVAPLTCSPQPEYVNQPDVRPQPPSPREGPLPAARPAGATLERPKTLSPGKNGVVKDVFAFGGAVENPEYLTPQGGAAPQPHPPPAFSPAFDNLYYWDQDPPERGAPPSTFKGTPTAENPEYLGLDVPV
T2 sequence (P00533 25-1210): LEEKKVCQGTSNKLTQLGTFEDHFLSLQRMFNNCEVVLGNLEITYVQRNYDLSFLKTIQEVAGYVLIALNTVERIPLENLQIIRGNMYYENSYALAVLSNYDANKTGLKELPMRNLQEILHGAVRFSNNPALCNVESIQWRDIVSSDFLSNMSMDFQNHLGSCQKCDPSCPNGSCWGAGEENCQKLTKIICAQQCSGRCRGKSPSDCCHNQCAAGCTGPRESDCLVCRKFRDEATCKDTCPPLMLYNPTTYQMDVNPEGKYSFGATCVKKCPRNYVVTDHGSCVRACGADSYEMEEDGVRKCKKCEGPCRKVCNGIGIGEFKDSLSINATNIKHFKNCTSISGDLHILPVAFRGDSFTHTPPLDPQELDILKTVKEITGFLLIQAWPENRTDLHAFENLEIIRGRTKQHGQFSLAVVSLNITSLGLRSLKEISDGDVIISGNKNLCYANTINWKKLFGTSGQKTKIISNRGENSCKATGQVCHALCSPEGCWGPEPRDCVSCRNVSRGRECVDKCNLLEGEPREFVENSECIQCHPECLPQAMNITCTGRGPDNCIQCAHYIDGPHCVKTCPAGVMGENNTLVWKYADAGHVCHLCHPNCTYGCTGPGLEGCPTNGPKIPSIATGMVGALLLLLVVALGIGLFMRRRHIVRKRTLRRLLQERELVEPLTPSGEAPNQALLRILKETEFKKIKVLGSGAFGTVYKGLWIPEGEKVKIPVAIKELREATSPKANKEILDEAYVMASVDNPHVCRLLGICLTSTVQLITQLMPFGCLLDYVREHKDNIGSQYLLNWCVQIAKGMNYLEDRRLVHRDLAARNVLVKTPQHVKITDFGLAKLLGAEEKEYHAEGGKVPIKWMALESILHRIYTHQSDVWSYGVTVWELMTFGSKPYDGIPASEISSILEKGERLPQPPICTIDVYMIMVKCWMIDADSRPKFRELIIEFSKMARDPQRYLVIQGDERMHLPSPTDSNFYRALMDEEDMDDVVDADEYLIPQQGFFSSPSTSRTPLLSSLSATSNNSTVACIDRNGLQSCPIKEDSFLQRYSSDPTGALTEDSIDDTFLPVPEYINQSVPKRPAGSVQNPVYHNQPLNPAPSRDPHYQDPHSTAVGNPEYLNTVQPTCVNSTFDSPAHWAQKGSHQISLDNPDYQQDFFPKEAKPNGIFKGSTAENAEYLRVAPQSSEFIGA

With `Cc1cc(Nc2ncnc3ccc4c(c23)OC[C@@H]2CN4CCN2)ccc1Oc1ccn2ncnc2c1` [Compound 49, (3S)—N-(4-([1,2,4]triazolo[1,5-a]pyridin-7-yloxy)-3-methylphenyl)-3,4,5,6-tetrahydro-2H-3,7-methano[1,4,7]oxadiazonino[2,3-f]quinazolin-13-amine], the GI50 at Ba/F3 ERBB2 YVMA was more than 500 nM. The results for the IC50 in test [1] and in test [2] were 466 nM and more than 10000 nM, respectively.

As for `CN(C)C/C=C/C(=O)N1CCN2c3ccc4ncnc(Nc5ccc(Oc6ccn7ncnc7c6)c(F)c5)c4c3OC[C@@H]2C1` [Compound 94, (S,E)-1-(4-((4-([1,2,4]triazolo[1,5-a]pyridin-7-yloxy)-3-fluorophenyl)amino)-6a,7,9,10-tetrahydropyrazino[1′,2′:4,5][1,4]oxazino[2,3-f]quinazolin-8(6H)-yl)-4-(dimethylamino)but-2-en-1-one], the GI50 on Ba/F3 ERBB2 YVMA stood at 19.9 nM. Also, the values for the IC50 in test [1] and in test [2] were 19.6 nM and 2160 nM, respectively.

For the molecule `Cc1cc(Nc2ncnc3ccc4c(c23)OC[C@H]2CN(C(=O)/C=C/CN(C)C)CCN42)ccc1Oc1ccc2c(c1)ncn2C` [Compound 22, (R,E)-4-(dimethylamino)-1-(4-((3-methyl-4-((1-methyl-1H-benzo[d]imidazol-5-yl)oxy)phenyl)amino)-6a,7,9,10-tetrahydropyrazino[1′,2′:4,5][1,4]oxazino[2,3-f]quinazolin-8(6H)-yl)but-2-en-1-one], the GI50 on Ba/F3 ERBB2 YVMA turned out to be 2.12 nM. Besides, the IC50 in test [1] is 22.8 nM; in test [2], 544 nM.

In the case of `Cc1cc(Nc2ncnc3cnc4c(c23)O[C@@H]2CCN(C)C[C@H]2N4C)ccc1Oc1ccc2c(c1)ncn2C` [Compound 133, (7aR,11aR)-7,9-dimethyl-N-(3-methyl-4-((1-methyl-1H-benzo[d]imidazol-5-yl)oxy)phenyl)-7a,8,9,10,11,11a-hexahydro-7H-pyrido[4,3-b]pyrimido[5′,4′:4,5]pyrido[2,3-e][1,4]oxazin-1-amine], the GI50 at Ba/F3 ERBB2 YVMA turned out to be 60.1 nM. The IC50 in test [1] is 41.9 nM; in test [2], more than 10000 nM.

`C=CC(=O)N1CCN2c3nc4c(Nc5ccc(Oc6ccn7ncnc7c6)c(C)c5)ncnc4cc3OC[C@H]2C1` [Compound 2, (R)-1-(11-((4-([1,2,4]triazolo[1,5-a]pyridin-7-yloxy)-3-methylphenyl)amino)-1,2,4a,5-tetrahydropyrazino[1,2-d]pyrimido[4′,5′:5,6]pyrido[3,2-b][1,4]oxazin-3(4H)-yl)prop-2-en-1-one]: the GI50 on Ba/F3 ERBB2 YVMA amounted to 4.54 nM. For the same molecule, the IC50 in test [1] is 8.97 nM; in test [2], 421 nM.

As to `CN(C)C/C=C/C(=O)N1CCN2C[C@@H]1COc1c2ccc2ncnc(Nc3ccc(Oc4ccn5ncnc5c4)c(F)c3)c12` [Compound 76, (E)-1-((3R)-13-((4-([1,2,4]triazolo[1,5-a]pyridin-7-yloxy)-3-fluorophenyl)amino)-2,3,5,6-tetrahydro-4H-3,7-methano[1,4,7]oxadiazonino[2,3-f]quinazolin-4-yl)-4-(dimethylamino)but-2-en-1-one], the GI50 at Ba/F3 ERBB2 YVMA turned out to be 5.86 nM. Moreover, the IC50 in test [1] was 5.66 nM; in test [2], 381 nM.

Regarding `Cc1cc(Nc2ncnc3ccc4c(c23)OC[C@H]2CN(C(=O)/C=C/CN(C)C)CCN42)c(F)cc1Oc1ccn2ncnc2c1` [Compound 116, (R,E)-1-(4-((4-([1,2,4]triazolo[1,5-a]pyridin-7-yloxy)-2-fluoro-5-methylphenyl)amino)-6a,7,9,10-tetrahydropyrazino[1′,2′:4,5][1,4]oxazino[2,3-f]quinazolin-8(6H)-yl)-4-(dimethylamino)but-2-en-1-one], on Ba/F3 ERBB2 YVMA, the GI50 is 14 nM. The values for the IC50 in test [1] and in test [2] were 10.9 nM and 572 nM, respectively.

For `Cc1cc(Nc2ncnc3cnc4c(c23)OC[C@H]2CNCCN42)ccc1Oc1ccc2c(c1)ncn2C` [Compound 130, (R)—N-(3-methyl-4-((1-methyl-1H-benzo[d]imidazol-5-yl)oxy)phenyl)-6,6a,7,8,9,10-hexahydropyrazino[1,2-d]pyrimido[5′,4′:4,5]pyrido[3,2-b][1,4]oxazin-4-amine], the GI50 at Ba/F3 ERBB2 YVMA turned out to be 170 nM. The IC50 in test [1] was 65 nM; in test [2], more than 10000 nM.

In the case of `C=CC(=O)N1CCN2c3cc4c(Nc5ccc(Oc6ccc7c(c6)ncn7C)c(C)c5)ncnc4cc3OC[C@H]2C1` [Compound 7, (R)-1-(11-((3-methyl-4-((1-methyl-1H-benzo[d]imidazol-5-yl)oxy)phenyl)amino)-1,2,4a,5-tetrahydropyrazino[1′,2′:4,5][1,4]oxazino[3,2-g]quinazolin-3(4H)-yl)prop-2-en-1-one], the GI50 on Ba/F3 ERBB2 YVMA was found to be 112 nM. Also, the IC50 was found to be 30.7 nM in test [1] and 1780 nM in test [2].

Turning to `C=CC(=O)N1CCN2C[C@H]1COc1c2ccc2ncnc(Nc3ccc(Oc4ccc5c(c4)ncn5C)c(C)c3)c12` [Compound 28, 1-((3S)-13-((3-methyl-4-((1-methyl-1H-benzo[d]imidazol-5-yl)oxy)phenyl)amino)-2,3,5,6-tetrahydro-4H-3,7-methano[1,4,7]oxadiazonino[2,3-f]quinazolin-4-yl)prop-2-en-1-one], on Ba/F3 ERBB2 YVMA, the GI50 is more than 500 nM. Also, the figures for the IC50 in test [1] and in test [2] were 417 nM and more than 10000 nM, respectively.

In the case of `Cc1cc(Nc2ncnc3ccc4c(c23)OC[C@@H]2CN(C(=O)/C=C/C3CN(C)C3)CCN42)ccc1Oc1ccn2ncnc2c1` [Compound 114, (S,E)-1-(4-((4-([1,2,4]triazolo[1,5-a]pyridin-7-yloxy)-3-methylphenyl)amino)-6a,7,9,10-tetrahydropyrazino[1′,2′:4,5][1,4]oxazino[2,3-f]quinazolin-8(6H)-yl)-3-(1-methylazetidin-3-yl)prop-2-en-1-one formic acid], the GI50 on Ba/F3 ERBB2 YVMA was 172 nM. Moreover, the IC50 in test [1] was 43.1 nM; in test [2] it was more than 10000 nM.

For `C=CC(=O)N1CCN2c3ccc4ncnc(Nc5ccc(Oc6ccc7c(c6)ncn7C)c(C)c5)c4c3OC[C@@H]2C1` [Compound 21, (S)-1-(4-((3-methyl-4-((1-methyl-1H-benzo[d]imidazol-5-yl)oxy)phenyl)amino)-6a,7,9,10-tetrahydropyrazino[1′,2′:4,5][1,4]oxazino[2,3-f]quinazolin-8(6H)-yl)prop-2-en-1-one], the GI50 at Ba/F3 ERBB2 YVMA worked out at 16.2 nM. Also, the IC50 in test [1] turned out to be 22.7 nM; in test [2] it was 575 nM.

Consider `CN(C)C/C=C/C(=O)N1CCN2c3ccc4ncnc(Nc5cc(F)c(Oc6ccn7ncnc7c6)cc5F)c4c3OC[C@@H]2C1` [Compound 98, (S,E)-1-(4-((4-([1,2,4]triazolo[1,5-a]pyridin-7-yloxy)-2,5-difluorophenyl)amino)-6a,7,9,10-tetrahydropyrazino[1′,2′:4,5][1,4]oxazino[2,3-f]quinazolin-8(6H)-yl)-4-(dimethylamino)but-2-en-1-one], for which the GI50 on Ba/F3 ERBB2 YVMA is 16.6 nM. Also, the values for the IC50 in test [1] and in test [2] were 60 nM and more than 10000 nM, respectively.

In the case of `CN(C)C/C=C/C(=O)N1CCN2c3ncc4ncnc(Nc5cc(F)c(Oc6ccn7ncnc7c6)cc5F)c4c3OC[C@H]2C1` [Compound 115, (R,E)-1-(4-((4-([1,2,4]triazolo[1,5-a]pyridin-7-yloxy)-2,5-difluorophenyl)amino)-6a,7,9,10-tetrahydropyrazino[1,2-d]pyrimido[5′,4′:4,5]pyrido[3,2-b][1,4]oxazin-8(6H)-yl)-4-(dimethylamino)but-2-en-1-one], on Ba/F3 ERBB2 YVMA, the GI50 turned out to be 7.22 nM. The IC50 is 30.2 nM in test [1] and 4770 nM in test [2].

For orientation: IC50 means the concentration that gives 50% inhibition. High values mean a need for much substance, low ones inhibition by little substance.
